Results published in article PMC4072508, “Genome-Wide Prediction and Validation of Peptides That Bind Human Prosurvival Bcl-2 Proteins” (PLoS Computational Biology, 2014).
Read-outs that look alike come from different tables or passages of the source.

Tests used:
Bcl-xL [1] = biological target: T1, Bcl-xL (Homo sapiens, UniProt Q07817); conditions: S1 Bim variants, specific binding measured using yeast display; ref Dutta et al. (2010); cited from earlier work
T1 construct: myc-Bcl-xL SPOT array & FP; made in house
T1 sequence (Q07817 with tags, fused parts or gaps): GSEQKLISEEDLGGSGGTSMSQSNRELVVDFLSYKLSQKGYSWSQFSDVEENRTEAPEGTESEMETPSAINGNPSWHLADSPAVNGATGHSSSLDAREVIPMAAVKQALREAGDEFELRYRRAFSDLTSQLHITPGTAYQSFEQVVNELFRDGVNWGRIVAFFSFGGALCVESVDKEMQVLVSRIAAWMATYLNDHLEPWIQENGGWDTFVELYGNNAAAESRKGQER

Mcl-1 [2] = biological target: T2, Mcl-1 (Homo sapiens, UniProt Q07820); conditions: read-out: Binder class, Mcl-1; S1 Bim variants, specific binding measured using yeast display; ref Dutta et al. (2010); cited from earlier work
T2 construct: myc-Mcl-1 SPOT array & FP; made in house
T2 sequence (Q07820 with tags, fused parts or gaps): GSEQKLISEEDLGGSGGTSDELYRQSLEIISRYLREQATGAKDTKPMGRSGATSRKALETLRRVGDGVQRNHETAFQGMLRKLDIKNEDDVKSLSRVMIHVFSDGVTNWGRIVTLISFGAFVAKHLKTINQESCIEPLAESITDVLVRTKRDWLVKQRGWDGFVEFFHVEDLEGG
Text: Negative control mutatio ...

Bcl-2 = biological target: T3, Bcl-2 (Homo sapiens, UniProt P10415, DEL53-91); assay: Fluorescence polarization direct binding
T3 construct: myc- Bcl-2 FP; made in house
T3 sequence (P10415 with tags, fused parts or gaps DEL53-91): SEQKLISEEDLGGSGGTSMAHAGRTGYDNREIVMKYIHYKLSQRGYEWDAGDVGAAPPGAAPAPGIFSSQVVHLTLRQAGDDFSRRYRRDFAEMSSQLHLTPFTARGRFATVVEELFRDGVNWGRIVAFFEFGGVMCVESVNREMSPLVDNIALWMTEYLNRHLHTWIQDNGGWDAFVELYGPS
Protocol: (§1) Peptides were purified by reverse-phase HPLC using a C18 column and a linear water/acetonitrile gradient. We re-analyzed the purified peptide by mass spectrometry if there was not a single well-defined peak in HPLC chromatogram.
(§2) Fluorescence polarization (FP) assays were done at 25°C in assay buffer (20 mM NaPO4, 50 mM NaCl, 1 mM EDTA, 0.001% Triton X (v/v), pH 7.8). […] For all FP experiments, the total well volume was 120 µl. […] Anisotropy was measured using a Spectramax M5 plate reader from Molecular Devices.
(§3) Direct binding curves were fit using Pylab/Scipy/Optimize to a single-site binding model utilized previously.
(§4) ^1Best-fit KD values determined by combining all replicate titration curves and fitting to a direct binding model (see Methods). […] Values with an X followed by a number indicate the highest concentration (the number, in nM) for which signal was measured yet no binding was detected.

Bcl-w = biological target: T4, Bcl-w (Homo sapiens, UniProt Q92843, Q133R); assay: Fluorescence polarization direct binding
T4 construct: myc-Bcl-w SPOT array & FP; made in house
T4 sequence (Q92843 with tags, fused parts or gaps Q133R): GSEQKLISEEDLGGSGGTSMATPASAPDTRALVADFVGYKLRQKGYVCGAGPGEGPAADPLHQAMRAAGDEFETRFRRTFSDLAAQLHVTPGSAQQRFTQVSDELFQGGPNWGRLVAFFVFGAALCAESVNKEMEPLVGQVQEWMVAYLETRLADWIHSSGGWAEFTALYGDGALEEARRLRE
Protocol: as §1, §2, §3, §4

Bcl-xL [3] = biological target: T1, Bcl-xL; assay: Fluorescence polarization direct binding
Protocol: as §1, §2, §3, §4

Bfl-1 = biological target: T5, Bfl-1 (Homo sapiens, UniProt Q16548); assay: Fluorescence polarization direct binding
T5 construct: myc- Bfl-1 SPOT array & FP; made in house
T5 sequence (Q16548 with tags, fused parts or gaps): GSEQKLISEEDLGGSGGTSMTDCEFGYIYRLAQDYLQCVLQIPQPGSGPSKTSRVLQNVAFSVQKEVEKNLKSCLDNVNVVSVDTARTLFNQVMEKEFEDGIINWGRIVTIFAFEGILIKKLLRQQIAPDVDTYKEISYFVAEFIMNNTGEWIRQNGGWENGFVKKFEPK
Protocol: as §1, §2, §3, §4

Mcl-1 [4] = biological target: T2, Mcl-1; assay: Fluorescence polarization direct binding
Protocol: as §1, §2, §3, §4

[5] = FP direct binding, 10 nM FAM-labeled peptide, receptor titrated, 25°C, pH 7.8, fit of all replicate titrations, X+number in a cell = highest concentration (nM) measured with no binding detected, given here as >, SPNS1 fit to raw fluorescence

| Compound | Binder class (Kd bin) (Bcl-xL [1]) [nM] | Kd (Mcl-1 [2]) [nM] | further results |
| --- | --- | --- | --- |
| PEIWVAQELERIGEEVNAYYARR | > 10000 | < 1000 |  |
| PEIWVAQELGRNGDEYNAYYARR | < 1000 | > 10000 |  |
| PEIWYAQELRRDGDEYNAYYARR | < 1000 | > 10000 |  |
| PEIWYAQEIRRFGDEFNAYYARR | < 1000 | > 10000 |  |
| PEIWYAQELGRYGDEYNAYYARR | < 1000 | > 10000 |  |
| PEIWVAQELKRNGDEFNAYYARR | < 1000 | > 10000 |  |
| PEIWYAQEINRIGDEVNAYYARR | > 10000 | < 1000 |  |
| PEIWYAQELKRFGDENNAYYARR | < 1000 | > 10000 |  |
| PEIWVAQEIRRVGDENNAYYARR | > 10000 | < 1000 |  |
| PEIWVAQELGRTGDEVNAYYARR | > 10000 | < 1000 |  |
| PEIWYAQELRRNGDEYNAYYARR | < 1000 | > 10000 |  |
| PEIWVAQEIGRIGNEINAYYARR | > 10000 | < 1000 |  |
| CC[C@H](C)[C@H](NC(=O)[C@H](CCC(=O)O)NC(=O)[C@H](C)NC(=O)[C@H](CO)NC(=O)[C@H](Cc1ccccc1)NC(=O)[C@H](CCC(N)=O)NC(=O)[C@H](CC(=O)O)NC(=O)[C@H](C)NC(=O)[C@H](CC(C)C)NC(=O)[C@H](Cc1c[nH]cn1)NC(=O)[C@H](CCCNC(=N)N)NC(=O)[C@H](CC(C)C)NC(=O)[C@H](CCC(=O)O)NC(=O)[C@H](CCC(N)=O)NC(=O)[C@H](C)NC(=O)[C@H](CCCCN)NC(=O)[C@@H]1CCCN1C(=O)[C@H](CCCNC(=N)N)NC(=O)[C@@H](NC(=O)[C@@H](N)CO)[C@@H](C)CC)C(=O)N[C@@H](C)C(=O)N[C@@H](CCCNC(=N)N)C(=O)N[C@@H](CCCNC(=N)N)C(N)=O [MCF2L] |  |  | Best-fit KD, Bcl-2 (Bcl-2; [5]): bound tightly; Kd (Bcl-2; FP direct binding, 10 nM FAM-labeled peptide, receptor titrated, 25°C, pH 7.8, fit of all replicate titrations, X+number in a cell = highest concentration (nM) measured with no binding detected, given here as >, SPNS1 fit to raw fluorescence, read-out: Best-fit KD, Bcl-2): 6 nM; Kd (Bcl-2; benchmark classification of peptides newly characterized in this study, read-out: Binder class, Bcl-2): < 1000 nM; Best-fit KD, Bcl-w (Bcl-w; [5]): bound tightly; Kd (Bcl-w; FP direct binding, 10 nM FAM-labeled peptide, receptor titrated, 25°C, pH 7.8, fit of all replicate titrations, X+number in a cell = highest concentration (nM) measured with no binding detected, given here as >, SPNS1 fit to raw fluorescence, read-out: Best-fit KD, Bcl-w): 7 nM; Kd (Bcl-w; benchmark classification of peptides newly characterized in this study, read-out: Binder class, Bcl-w): < 1000 nM; Best-fit KD, Bcl-xL (Bcl-xL [3]; [5]): bound tightly; Kd (Bcl-xL [3]; FP direct binding, 10 nM FAM-labeled peptide, receptor titrated, 25°C, pH 7.8, fit of all replicate titrations, X+number in a cell = highest concentration (nM) measured with no binding detected, given here as >, SPNS1 fit to raw fluorescence, read-out: Best-fit KD, Bcl-xL): 4 nM; Kd (Bcl-xL [3]; benchmark classification of peptides newly characterized in this study, read-out: Binder class, Bcl-xL): < 1000 nM; Kd (Bfl-1; FP direct binding, 10 nM FAM-labeled peptide, receptor titrated, 25°C, pH 7.8, fit of all replicate titrations, X+number in a cell = highest concentration (nM) measured with no binding detected, given here as >, SPNS1 fit to raw fluorescence, read-out: Best-fit KD, Bfl-1): > 4100 nM; Kd (Bfl-1; benchmark classification of peptides newly characterized in this study, read-out: Binder class, Bfl-1): > 10000 nM; Kd (Mcl-1 [4]; Binder class, Mcl-1, benchmark classification of peptides newly characterized in this study): > 10000 nM; Kd (Mcl-1 [4]; [5]): > 4000 nM |
| PEIWYAQEIQRYGDEFNAYYARR | < 1000 | > 10000 |  |
